Patent US9284283B2, “Macrocyclic compounds for modulating IL-17” (ENSEMBLE THERAPEUTICS CORPORATION, priority 2012, dated 2016)
pIC50: −log10 of the molar value.

What was measured:
[1] = target: T1, recombinant human IL17a (binding to its receptor IL17R) (Homo sapiens, UniProt Q16552); assay: IL-17 competition ELISA I (IL17a coated, IL17R/Fc binding)
T1 construct: purchased R&D Systems 317-ILB (IL17a); 177-IR (IL17R/Fc)
T1 sequence (Q16552 20-155 limits assumed): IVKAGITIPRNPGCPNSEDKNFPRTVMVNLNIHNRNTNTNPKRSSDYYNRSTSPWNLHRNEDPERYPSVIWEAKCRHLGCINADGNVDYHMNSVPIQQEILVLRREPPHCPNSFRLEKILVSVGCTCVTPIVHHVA
How it was run: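 Plates coated with 20 nM recombinant human IL17a received compound dilutions and 12 nM IL17R/Fc (final) for 30 min at room temperature. Bound receptor was detected with HRP anti-human Fc and TMB, read at 450 nm. IC50 came from a 4-parameter logistic fit between no-competitor and blank controls.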

[2] = system: IL-17-induced GROα secretion from HT-29 cells; assay: HT-29 cellular assay (IL-17-induced GROα secretion); format: cell-based; details: Homo sapiens
Procedure: To test the ability of a compound of the invention to neutralize or antagonize IL-17 bioactivity, the following cell-based assay was used. IL-17 can stimulate epithelial cells and other cells to secrete GROα. The ability of a compound of the invention to neutralize IL-17-induced GROα secretion from the human colorectal adenocarcinoma epithelial cell line HT-29 is tested in this assay.
HT-29 cells (human colorectal adenocarcinoma epithelial cells, ATCC #HTB-38), were maintained in culture/assay medium in tissue culture-treated flasks using standard techniques. HT-29 cells were grown in tissue culture flasks until they were 50-80% confluent on the day before the assay. The day before the assay, the cells were detached from the culture flasks with trypsin+EDTA. The trypsin was inactivated with complete assay medium. HT-29 cells were then centrifuged at 500×g for 5 minutes at room temperature. The cell pellet was then re-suspended in Defined Keratinocyte SFM (Invitrogen #10766019)+10% FCS and 50,000 HT-29 cells (in 100 μl) were added to each treatment well of the 96-well plates. The 96-well plates were placed in a tissue culture incubator (37° C., 5% CO2) overnight. The next day, the media was removed from the cells and the cells were washed twice with Defined Keratinocyte SFM. In a separate 96-well plate, compounds to be tested were serially diluted in Defined Keratinocyte SFM and run in triplicate in 100 μL total volume. To these compound samples were then added 100 μL of human IL-17 at a concentration of 20 ng/mL in Defined Keratinocyte SFM for serum-free assays. 150 μL of the compound/IL-17 mixture was then added to the cells from which the media has previously been removed. The cells were grown for 48 hours in Defined Keratinocyte SFM in a tissue culture incubator (37° C., 5% CO2).
At the end of the incubation, the plates are centrifuged (500×g for 5 minutes at room temperature), and the cell culture media is transferred to polypropylene 96-well plates. The supernatant was used neat in the ELISA. GROα levels are measured with a GROα sandwich ELISA (R+D Systems DuoSet #DY275E), as per the manufacturer's instructions. The ELISA plates were previously coated with mAb 275 (R+D Systems) at 4 μg/mL. GROα is detected using biotinylated goat anti-human GROα (R+D Systems BAF275) at 200 ng/mL using TMB as a substrate. At the end of the ELISA reactions, plates are read at 450 nm on a microplate reader and compared to a standard calibration curve.

[3] = system: IL-17A induced secretion of IL-6 in primary human RASF cells; assay: Inhibition of IL17A induced secretion of IL6 in human rheumatoid arthritis synovial fibroblast (RASF) cells; format: cell-based; details: Homo sapiens, Fibroblast
How it was run: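 Primary RASF cells (passage 2-8) stimulated 20 h at 37 °C with rhIL-17A (30 ng/mL) pre-incubated 1 h with compound (final 0.03-25 μM, 0.25% DMSO). Supernatant IL-6 measured by ELISA, normalized to WST1 viability; triplicates.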

Structure (SMILES)	pIC50 [1]	pIC50 [2]	pIC50 [3]
COC(=O)[C@@H]1CCCCNC(=O)CNC(=O)[C@@H](Cc2ccc(NC(=O)[C@H](Cc3ccccc3Cl)NC(=O)c3ccccc3)cc2)NC(=O)CC2(CCCC2)CC(=O)N1 [Compound 144]	> 7.00	5.00 to 6.00	5.00 to 6.00
O=C1CNC(=O)[C@@H](Cc2ccc(NC(=O)[C@H](Cc3ccccc3Cl)NC(=O)Cc3ccccc3)cc2)NC(=O)CC2(CCCC2)CC(=O)NCCCCCN1 [Compound 159]	> 7.00	> 6.00	5.00 to 6.00
COC(=O)[C@@H]1CCCCNC(=O)CNC(=O)[C@@H](Cc2ccc(NC(=O)[C@H](Cc3ccccc3Cl)NC(=O)Cc3ccccc3)cc2)NC(=O)CC2(CCCC2)CC(=O)N1 [Compound 143]	> 7.00	> 6.00	5.00 to 6.00
COC(=O)[C@@H]1CCCCNC(=O)CCCNC(=O)[C@@H](Cc2ccc(NC(=O)[C@H](Cc3ccccc3F)NC(=O)Cc3ccccc3)cc2)NC(=O)CC2(CCCC2)CC(=O)N1 [Compound 106]	6.00 to 7.00	< 5.00	< 5.00

Continued, in another order:

pIC50 [1]	pIC50 [2]	Structure (SMILES)	pIC50 [3]
> 7.00	> 6.00	O=C1CNC(=O)[C@@H](Cc2ccc(NC(=O)[C@H](Cc3ccc(Cl)cc3Cl)NC(=O)Cc3ccc(O)cc3)cc2)NC(=O)CC2(CCCC2)CC(=O)NCCCCCN1 [Compound 191]	5.00 to 6.00
> 7.00	–	O=C1CNC(=O)[C@@H](Cc2ccc(NC(=O)[C@@H](NC(=O)Cc3ccccc3)C3CCCCC3)cc2)NC(=O)CC2(CCCC2)CC(=O)NCCCCCN1 [Compound 186]	5.00 to 6.00
> 7.00	–	O=C1CNC(=O)[C@@H](Cc2ccc(NC(=O)[C@H](Cc3ccccc3Cl)NC(=O)c3cccnc3)cc2)NC(=O)CC2(CCCC2)CC(=O)NCCCCCN1 [Compound 194]	6.00 to 7.00
> 7.00	5.00 to 6.00	O=C1CNC(=O)[C@@H](Cc2ccc(NC(=O)[C@H](Cc3ccc(Cl)cc3Cl)NC(=O)Cc3ccccc3)cc2)NC(=O)CC2(CCCC2)CC(=O)NCCCCCN1 [Compound 185]	5.00 to 6.00
> 7.00	–	O=C1CNC(=O)[C@@H](Cc2ccc(NC(=O)[C@H](Cc3ccccc3Cl)NC(=O)Cc3ccccn3)cc2)NC(=O)CC2(CCCC2)CC(=O)NCCCCCN1 [Compound 226]	5.00 to 6.00
